# Experiments:
# Enterobacter aerogenes = test: Log10 reduction of viable facultative anaerobic bacteria in high-TDS buffer after biocide contact; assay type: cell-based; conditions: TDS 30,000 mg l^-1, pH 8 phosphate buffer, room temperature, versus control, ppm active per example, 8 = complete kill
# Protocol: (§1) Aqueous systems inoculated with anaerobe and facultative anaerobe culture and having a total dissolved solids (TDS) concentration of 30,000 mg l^−1 were prepared and treated with treatment agents comprising: (a) a phosphonium compound and (b) a quaternary ammonium salt. The phosphonium compound (a) used was tri n-butyl n-tetradecyl phosphonium chloride (TTPC). The quaternary ammonium salt (b) used was 1-(3-chloroallyl)-3,5,7-triaza-1-azoniaadamantane chloride (CTAC).
# (§2) A suspension of Desulfovibrio vulgaris plus Enterobacter aerogenes bacteria containing from 1×10^5 to 1×10^6 cells/mL was prepared in sterile pH 8 phosphate buffer containing sodium chloride to give the desired total dissolved solids (TDS) concentration. Aliquots of this suspension were dosed with the indicated concentrations of the compounds (a) and (b) with the concentrations being measured as ppm active by weight. The mixtures were allowed to stand at room temperature. At the designated contact times, each mixture was sampled to determine the total number of viable cells of both Desulfovibrio vulgaris and Enterobacter aerogenes by serial 10-fold dilution into API RP 38 media vials and anaerobic acid producing media vials, respectively. The vials were incubated at 37° C. for 72 hours. Results were recorded as log10 reduction in the viable count versus the control.
# (§3) The efficacy of the treatment agents was evaluated by measuring the Log10 Reduction of the anaerobic bacterium Desulfovibrio vulgaris and the facultative anaerobic bacterium Enterobacter aerogenes after contact times of 1 hour, 4 hours, 24 hours and 48 hours as detailed in Table 1. For TTPC the stated ppm value relates to the amount of TTPC added (active). For the CTAC the stated ppm relates to the amount of CTAC added (active).
# Desulfovibrio vulgaris = test: Log10 reduction of viable anaerobic bacteria in high-TDS buffer after biocide contact; assay type: cell-based; conditions: TDS 30,000 mg l^-1, pH 8 phosphate buffer, room temperature, versus control, ppm active per example, 5 = complete kill
# Protocol: as §1, §2, §3
smiles,measurement,setting,value
"CCCCCCCCCCCCCC[P+](CCCC)(CCCC)CCCC.[Cl-] [Example 1, tri n-butyl n-tetradecyl phosphonium chloride]",Log10 Reduction Facultative Anaerobes,Enterobacter aerogenes; contact time 1 hour,1
same,Log10 Reduction Anaerobes,Desulfovibrio vulgaris; contact time 1 hour,2
"CCCCCCCCCCCCCC[P+](CCCC)(CCCC)CCCC.[Cl-] [Example 2, tri n-butyl n-tetradecyl phosphonium chloride]",Log10 Reduction Facultative Anaerobes,Enterobacter aerogenes; contact time 1 hour,3
same,Log10 Reduction Anaerobes,Desulfovibrio vulgaris; contact time 1 hour,3
"ClC=CC[N+]12CN3CN(CN(C3)C1)C2.[Cl-] [Example 4, 1-(3-chloroallyl)-3,5,7-triaza-1-azoniaadamantane chloride]",Log10 Reduction Facultative Anaerobes,Enterobacter aerogenes; contact time 1 hour,0
same,Log10 Reduction Anaerobes,Desulfovibrio vulgaris; contact time 1 hour,0
"CCCCCCCCCCCCCC[P+](CCCC)(CCCC)CCCC.[Cl-] [Example 9, tri n-butyl n-tetradecyl phosphonium chloride]",Log10 Reduction Facultative Anaerobes,Enterobacter aerogenes; contact time 4 hours,2
same,Log10 Reduction Anaerobes,Desulfovibrio vulgaris; contact time 4 hours,5
"CCCCCCCCCCCCCC[P+](CCCC)(CCCC)CCCC.[Cl-] [Example 10, tri n-butyl n-tetradecyl phosphonium chloride]",Log10 Reduction Facultative Anaerobes,Enterobacter aerogenes; contact time 4 hours,8
same,Log10 Reduction Anaerobes,Desulfovibrio vulgaris; contact time 4 hours,5
"ClC=CC[N+]12CN3CN(CN(C3)C1)C2.[Cl-] [Example 11, 1-(3-chloroallyl)-3,5,7-triaza-1-azoniaadamantane chloride]",Log10 Reduction Facultative Anaerobes,Enterobacter aerogenes; contact time 4 hours,0
same,Log10 Reduction Anaerobes,Desulfovibrio vulgaris; contact time 4 hours,0
"ClC=CC[N+]12CN3CN(CN(C3)C1)C2.[Cl-] [Example 12, 1-(3-chloroallyl)-3,5,7-triaza-1-azoniaadamantane chloride]",Log10 Reduction Facultative Anaerobes,Enterobacter aerogenes; contact time 4 hours,1
same,Log10 Reduction Anaerobes,Desulfovibrio vulgaris; contact time 4 hours,0
"CCCCCCCCCCCCCC[P+](CCCC)(CCCC)CCCC.[Cl-] [Example 17, tri n-butyl n-tetradecyl phosphonium chloride]",Log10 Reduction Facultative Anaerobes,Enterobacter aerogenes; contact time 24 hours,4
same,Log10 Reduction Anaerobes,Desulfovibrio vulgaris; contact time 24 hours,5
"CCCCCCCCCCCCCC[P+](CCCC)(CCCC)CCCC.[Cl-] [Example 18, tri n-butyl n-tetradecyl phosphonium chloride]",Log10 Reduction Facultative Anaerobes,Enterobacter aerogenes; contact time 24 hours,7
same,Log10 Reduction Anaerobes,Desulfovibrio vulgaris; contact time 24 hours,5
"ClC=CC[N+]12CN3CN(CN(C3)C1)C2.[Cl-] [Example 19, 1-(3-chloroallyl)-3,5,7-triaza-1-azoniaadamantane chloride]",Log10 Reduction Facultative Anaerobes,Enterobacter aerogenes; contact time 24 hours,0
same,Log10 Reduction Anaerobes,Desulfovibrio vulgaris; contact time 24 hours,1
"ClC=CC[N+]12CN3CN(CN(C3)C1)C2.[Cl-] [Example 20, 1-(3-chloroallyl)-3,5,7-triaza-1-azoniaadamantane chloride]",Log10 Reduction Facultative Anaerobes,Enterobacter aerogenes; contact time 24 hours,2
same,Log10 Reduction Anaerobes,Desulfovibrio vulgaris; contact time 24 hours,3
"CCCCCCCCCCCCCC[P+](CCCC)(CCCC)CCCC.[Cl-] [Example 25, tri n-butyl n-tetradecyl phosphonium chloride]",Log10 Reduction Facultative Anaerobes,Enterobacter aerogenes; contact time 48 hours,6
same,Log10 Reduction Anaerobes,Desulfovibrio vulgaris; contact time 48 hours,5
"ClC=CC[N+]12CN3CN(CN(C3)C1)C2.[Cl-] [Example 27, 1-(3-chloroallyl)-3,5,7-triaza-1-azoniaadamantane chloride]",Log10 Reduction Facultative Anaerobes,Enterobacter aerogenes; contact time 48 hours,2
same,Log10 Reduction Anaerobes,Desulfovibrio vulgaris; contact time 48 hours,5
"ClC=CC[N+]12CN3CN(CN(C3)C1)C2.[Cl-] [Example 28, 1-(3-chloroallyl)-3,5,7-triaza-1-azoniaadamantane chloride]",Log10 Reduction Facultative Anaerobes,Enterobacter aerogenes; contact time 48 hours,3
same,Log10 Reduction Anaerobes,Desulfovibrio vulgaris; contact time 48 hours,5

# Source: patent publication US20170094976A1, “TREATMENT OF WATER” (BWA WATER ADDITIVES UK LIMITED, priority 2015, published 2017)
